Measured values reported in patent US20260069555A1, “Compositions and Methods for Modulating the Effect of Beta-Blocker Activity in a Subject” (Duke University, priority 2021, published 2026).
Where “and” joins values, the source holds several entries; their conditions need not be identical. Equal values may be shown once. Each block holds one compound with its values, some of them ahead of it.

Legend:
β1AR [1] = biological target: T1, β1AR (Homo sapiens, UniProt P08588); assay: EGFR transactivation (EGFR endocytosis BRET) in HEK293 cells stably expressing β1ARs; assay type: cell-based
T1 sequence (P08588 whole entry): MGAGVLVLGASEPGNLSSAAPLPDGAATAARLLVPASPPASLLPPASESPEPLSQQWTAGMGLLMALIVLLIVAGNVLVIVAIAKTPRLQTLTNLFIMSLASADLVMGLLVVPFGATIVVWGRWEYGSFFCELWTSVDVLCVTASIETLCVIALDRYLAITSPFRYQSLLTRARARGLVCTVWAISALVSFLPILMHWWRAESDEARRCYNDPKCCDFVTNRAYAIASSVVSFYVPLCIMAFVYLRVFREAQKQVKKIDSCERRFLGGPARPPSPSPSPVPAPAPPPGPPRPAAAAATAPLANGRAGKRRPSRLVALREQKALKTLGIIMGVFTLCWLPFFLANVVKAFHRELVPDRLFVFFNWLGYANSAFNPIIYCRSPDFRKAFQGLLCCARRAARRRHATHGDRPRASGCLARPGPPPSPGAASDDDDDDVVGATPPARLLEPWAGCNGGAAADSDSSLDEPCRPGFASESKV
Protocol: HEK293 cells stably expressing β1ARs were transfected with 250 ng of EGFR-RlucII and 1 μg of rGFP-FYVE constructs. The day following transfection, cells were re-seeded onto poly-L-ornithine coated 96-well plates at ˜25,000 cells per well. […] The cell-permeable substrate coelenterazine 400a (final concentrations of 5 μM) was added 3˜6 min before BRET measurements.

C57BL/6J wild-type mice = assay: Isoproterenol-induced hemodynamics in mouse heart; assay type: in vivo; settings: 3 days
Protocol: Isoproterenol-induced hemodynamic in mouse heart: Eight to twelve-week-old C57BL/6J wild-type mice of both sexes were used. Animal experiments carried out were handled according to approved protocols and animal welfare regulations mandated by the Institutional Animal Care and Use Committee of Duke University Medical Center. […] After treatment, mice were anesthetized with ketamine (100 mg/kg) and xylazine (2.5 mg/kg). After bilateral vagotomy, a 1.4 French (0.46 mm) high fidelity micromanometer catheter (ADInstruments) connected to a pressure transducer (ADInstruments) was inserted into the left ventricle to monitor blood pressure. Basal blood pressure was recorded at steady state after the catheter insertion (2-3 min after insertion). Graded doses of isoproterenol were administered at 45 sec intervals by intravenous injection through a jugular vein. The blood pressure was monitored continuously and recorded at the steady state (35-45 sec after each injection). Data analysis was performed using LabChart 8 software (ADInstruments).

β1AR [2] = biological target: T1, β1AR; assay: GloSensor cAMP assay in HEK293 cells transfected with β1ARs; settings: for activation of cAMP: β-blockers as stimulating ligands
β1AR [3] = biological target: T1, β1AR; assay: ERK activation assay in HEK293 cells expressing β1ARs; assay type: cell-based; settings: for dependency of ERK activation on β-arrestin: β-arrestin1/2 knockout vs wild type HEK293 cells
From the text: ERK activation assay: HEK293 cells with stable overexpression of FLAG-tagged β1AR or β-arrestin knockout were described previously. Cells were periodically treated with BM Cyclin (Roche) to avoid mycoplasma contamination. […] Cell lysate samples were separated by SDS-PAGE, transferred to PVDF membrane (Bio-Rad) and subjected to immunoblotting with anti-MAPK 1/2 (EMD Millipore) and anti-p44/42 MAPK (Cell Signaling) antibodies. Immunoblots were detected using enhanced chemiluminescence (Thermo Fisher Scientific) and analyzed with ImageJ software. The densitometry values from pERK blots were normalized to respective total ERK blots, and normalized to the maximum response of control group in each experiment.

mouse hearts = assay: Ischemia/reperfusion-induced cell apoptosis in mouse heart (TUNEL); assay type: in vivo
Protocol: Ischemia reperfusion-induced cell apoptosis in mouse heart: Eight to twelve-week-old C57BL/6J wild-type mice or eight to twenty-seven-week-old αMyHC-Cre:Arrblflox/flox/Arrb2flox/flox mice of both sexes were used. Animals were randomly assigned to, and the researchers were blinded for, treatment groups. […] After 3 days of treatment, cardiac ischemia was produced by the ligation of left anterior descending coronary artery. After 45 min, the ligation was released to allow the blood flow to be restored for 45 min. […] The hearts were then embedded in optimum cutting temperature compound (Sakura Finetek) and snap frozen in liquid nitrogen. TUNEL staining on the cryo-sections were performed with in situ cell death detection kit (Sigma-Aldrich) according to the manufacturer's protocol. Sections were then mounted in ProLon Diamond Antifade Mountant with DAPI (Thermo Fisher Scientific). Images were recorded with Zeiss Axio Observer Z1 confocal microscope with 20× objective. In each heart, sections from different groups (from base to apex of the tissue, apart by 0.5 mm) were stained, and the group with maximum TUNEL-positive cells were used for quantification. At lease 9 images from 3 sections were quantified for each heart. The number of TUNEL-positive cells and the total number of nuclei as determined by DAPI staining were counted using ImageJ software.

β1AR [4] = biological target: T1, β1AR; assay: 125I-CYP competition binding at β1AR-HDL particles (Example 2)
[5] = biological target: endogenously expressed β2AR (Homo sapiens, UniProt P07550); assay: GloSensor cAMP generation in HEK293 cells; settings: 30 μM modulator
Sequence of endogenously expressed β2AR (P07550 whole entry): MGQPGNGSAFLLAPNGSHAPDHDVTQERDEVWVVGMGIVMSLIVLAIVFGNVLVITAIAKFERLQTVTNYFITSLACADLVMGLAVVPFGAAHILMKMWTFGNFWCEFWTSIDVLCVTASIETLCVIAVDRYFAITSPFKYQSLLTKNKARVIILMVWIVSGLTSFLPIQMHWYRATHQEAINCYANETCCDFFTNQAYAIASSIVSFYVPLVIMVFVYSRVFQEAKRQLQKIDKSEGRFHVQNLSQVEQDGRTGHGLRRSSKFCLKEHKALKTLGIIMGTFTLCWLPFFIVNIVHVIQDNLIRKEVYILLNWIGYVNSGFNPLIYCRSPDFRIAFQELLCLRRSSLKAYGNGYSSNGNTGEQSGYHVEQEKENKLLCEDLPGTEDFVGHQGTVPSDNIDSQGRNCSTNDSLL

β2AR-Gs complexes = β2AR-Gs complexes (Homo sapiens, UniProt P07550); assay: 35S-GTPγS binding to heterotrimeric Gs, β2AR in HDL; settings: epinephrine 10 μM stimulation
Sequence of β2AR-Gs complexes (P07550 whole entry, one chain of several): as the sequence (P07550 whole entry) above

β2AR = β2AR (Homo sapiens, UniProt P07550); assay: 125I-CYP competition radioligand binding at β2AR in HDL particles
Sequence of β2AR (P07550 whole entry): as above

Compound: COc1ccc(Sc2ccc(S(=O)(=O)N(C)C(C)C)cc2C(=O)N[C@@H](CC(N)=O)Cc2ccc(C(C)(C)C)cc2)cc1 [Cmpd-6, (R)—N-(4-amino-1-(4-(tert-butyl)phenyl)-4-oxobutan-2-yl)-5-(N-isopropyl-N-methylsulfamoyl)-2-((4-methoxyphenyl)thio)benzamide]
potentiation of the inhibitory effect of carvedilol on heart rate and dP/dt max (C57BL/6J wild-type mice; Cmpd-6 5 mg/kg/day + carvedilol 1 mg/kg/day): only a modest potentiation
effect on isoproterenol- or carvedilol-induced cAMP dose response curve (β1AR [2]; 30 μM Cmpd-6): no enhancement
cooperativity on isoproterenol-stimulated ERK activation (β1AR [3]; 30 μM Cmpd-6): no cooperativity
TUNEL positive cells in the ischemic zone (mouse hearts; Cmpd-6 5 mg/kg/day alone, wild type mice): ~10%
PAM activity on the isoproterenol-induced EGFR transactivation (β1AR [1]; 30 μM Cmpd-6): no PAM activity
cooperativity with the full agonists epinephrine and norepinephrine (β1AR [4]; 25 μM Cmpd-6): minimal positive cooperativity
enhancement of receptor binding affinity of carvedilol for β1ARs (β1AR [4]; FIG. 10A): 7.9 fold and ~8 fold

Compound: CC(C)(Cc1c[nH]c2ccccc12)NCC(O)COc1ccccc1C#N (stereo not shown) [bucindolol]
activation of cAMP (β1AR [2]): 40 % of the maximal isoproterenol response
dependency of ERK activation on β-arrestin (β1AR [3]): independent of β-arrestin

Compound: C=CCc1ccccc1OCC(O)CNC(C)C (stereo not shown) [alprenolol]
activation of cAMP (β1AR [2]): 20 % of the maximal isoproterenol response
dependency of ERK activation on β-arrestin (β1AR [3]): ~50%

Compound: COc1ccccc1OCCNCC(O)COc1cccc2[nH]c3ccccc3c12 (stereo not shown) [carvedilol]
effect on isoproterenol-induced hemodynamics (heart rate, dP/dt max) (C57BL/6J wild-type mice; 1 mg/kg/day, osmotic pump): minimal effect
effect on isoproterenol-induced hemodynamics (heart rate, dP/dt max) (C57BL/6J wild-type mice; higher doses (5, 20 mg/kg/day)): blocked both the heart rate and contractility response
effect on I/R induced apoptosis (mouse hearts; 5 or 20 mg/kg/day, wild type mice): inhibited I/R induced apoptosis
effect on I/R-induced apoptosis (mouse hearts; low or high dose (1 or 20 mg/kg/day), cardiomyocyte-specific β-arrestin1/2 knockout mice): did not reduce

Compound: EGF: EGF ligand of the EGFR
ligand-induced EGFR endocytosis (change in BRET ratio) (β1AR [1]; assay validation): robust change in BRET ratio

Continued, in another order:

effect on EGF-induced change in BRET ratio (β1AR [1]; 10 μM pretreatment): blocked
Compound: COc1cc2ncnc(Nc3cccc(Cl)c3)c2cc1OC [AG1478]

modulation of isoproterenol-stimulated cAMP generation [5]: classic NAM
effect on agonist-stimulated activation of Gs / 35S-GTPγS binding to Gs (β2AR-Gs complexes): markedly blocks
PAM activity with agonists including epinephrine (β2AR; affinity shifts, 20 μM analog): absolutely no PAM activity
Log KT (dissociation constant of PAM for receptor binding) (β2AR; carvedilol-bound β2AR): −5.533
Compound: CC(C)N(C)S(=O)(=O)c1ccc(Sc2ccc(C(N)=O)cc2)c(C(=O)N[C@@H](CC(N)=O)Cc2ccc(C(C)(C)C)cc2)c1 [A9, (R)—N-(4-amino-1-(4-(tert-butyl)phenyl)-4-oxobutan-2-yl)-2-((4-carbamoylphenyl)thio)-5-(N-isopropyl-N-methylsulfamoyl)benzamide]
cooperativity with carvedilol (β2AR; compared with parent cmpd-6): retains its positive cooperativity with carvedilol
